Counter-ions that a name gives are not always drawn.
Columns and labels:
[1] = test system: E. coli RNase P RNA, M1 RNA; assay: Inhibition of bacterial RNase P activity, IC50 determination (cleavage of pATSerUG by M1 RNA); assay type: biochemical; conditions: NI: No inhibition
[2] = test system: Escherichia coli (ATCC25922); assay: MIC, broth microdilution (CLSI), Escherichia coli; conditions: Escherichia coli, ATCC25922, read-out: E. coli ATCC 25922 MIC, Table XIII
[3] = test system: Staphylococcus aureus (ATCC25923); assay: MIC, broth microdilution (CLSI), Staphylococcus aureus ATCC25923; conditions: Staphylococcus aureus, ATCC25923, read-out: S. aureus ATCC 25923 MIC

Row | Structure (SMILES) | IC50 [1] | MIC [2] | MIC [3]
1 | Cc1cccc(-c2ccc3c(c2)c(CCCN[C@H]2CC[C@H](N)CC2)cn3CC2CCCCC2)c1 [Compound 207, (1R,4R)-N1-(3-(1-(cyclohexylmethyl)-5-(m-tolyl)-1H-indol-3-yl)propyl)cyclohexane-1,4-diamine hydrochloride salt] | 17 µM | 4 µg/mL | 4 µg/mL
2 | Cl.NC1CCC(NC(=O)Cc2cn(CC3CCCCC3)c3ccc(-c4ccccc4OC(F)(F)F)cc23)CC1 [Compound 234, N-((1S,4S)-4-aminocyclohexyl)-2-(1-(cyclohexylmethyl)-5-(2-(trifluoromethoxy)phenyl)-1H-indol-3-yl)acetamide hydrochloride salt] | 7 µM | 289 µg/mL | 9 µg/mL
3 | Cc1cccc(-c2ccc3c(c2)c(CCC(=O)NC2CCC(N)CC2)cn3CC2CCCCC2)c1.Cl (stereo not drawn) [Compound 144, N-((1s,4s)-4-aminocyclohexyl)-3-(1-(cyclohexylmethyl)-5-(m-tolyl)-1H-indol-3-yl)propanamide hydrochloride salt] | 7.5 µM | 64 µg/mL | 4 µg/mL
4 | Cl.O=C(CC(c1cscn1)c1cn(CC2CCCCC2)c2ccccc12)NC1CCNCC1 (stereo not drawn) [Compound 101, 3-(1-(cyclohexylmethyl)-1H-indol-3-yl)-N-(piperidin-4-yl)-3-(thiazol-4-yl)propanamide hydrochloride salt] | 387 µM | 128 µg/mL | 128 µg/mL
5 | Cl.NC1CCC(C(=O)N2CCC(c3cn(CC4CCCCC4)c4ccccc34)CC2)CC1 (stereo not drawn) [Compound 200, (4-aminocyclohexyl) (4-(1-(cyclohexylmethyl)-1H-indol-3-yl)piperidin-1-yl)methanone hydrochloride salt] | 5.9 µM | 59 µg/mL | 15 µg/mL
6 | COc1cc(OC)cc(C(CC(=O)N[C@H]2CC[C@H](N)CC2)c2cn(CC3CCCCC3)c3ccccc23)c1.Cl (stereo partly drawn) [Compound 127, N-((1R,4R)-4-aminocyclohexyl)-3-(1-(cyclohexylmethyl)-1H-indol-3-yl)-3-(3,5-dimethoxyphenyl) propanamide hydrochloride salt] | 19 µM | > 512 µg/mL | 512 µg/mL
7 | Cc1cc(F)cc(C(CC(=O)NC2CCC(N)CC2)c2cn(CC3CCCCC3)c3ccccc23)c1.Cl [Compound 150, N-((1S,4S)-4-aminocyclohexyl)-3-(1-(cyclohexylmethyl)-1H-indol-3-yl)-3-(3-fluoro-5-methylphenyl) propanamide hydrochloride salt] | 64 µM | 512 µg/mL | 8 µg/mL
8 | Cl.N[C@H]1CC[C@H](NC(=O)Cc2cn(CC3CCCCC3)c3ccc(Br)cc23)CC1 [Compound 190, N-((1R,4R)-4-aminocyclohexyl)-2-(5-bromo-1-(cyclohexylmethyl)-1H-indol-3-yl)acetamide hydrochloride salt] | 10 µM | 31 µg/mL | 15 µg/mL
9 | Cl.N[C@H]1CC[C@H](NC(=O)CC(c2cccc(C(F)(F)F)c2)c2cn(CC3CCCCC3)c3ccccc23)CC1 (stereo partly drawn) [Compound 129, N-((1R,4R)-4-aminocyclohexyl)-3-(1-(cyclohexylmethyl)-1H-indol-3-yl)-3-(3-(trifluoromethyl)phenyl) propanamide hydrochloride salt] | 13 µM | > 512 µg/mL | 4 µg/mL
10 | Cl.N[C@H]1CC[C@H](NC(=O)CCc2cn(CC3CCCCC3)c3ccc(-c4ccccc4OC(F)(F)F)cc23)CC1 [Compound 231, N-((1R,4R)-4-aminocyclohexyl)-3-(1-(cyclohexylmethyl)-5-(2-(trifluoromethoxy)phenyl)-1H-indol-3-yl) propanamide hydrochloride salt] | 4.4 µM | > 512 µg/mL | 5 µg/mL
11 | Cc1cccc(C(CC(=O)NC2CCC(N)CC2)c2c(C)n(CC3CCCCC3)c3ccccc23)c1.Cl [Compound 243, N-((1S,4S)-4-aminocyclohexyl)-3-(1-(cyclohexylmethyl)-2-methyl-1H-indol-3-yl)-3-(m-tolyl)propanamide hydrochloride salt] | 35 µM | > 512 µg/mL | 17 µg/mL
12 | Cl.O=C(CCc1cn(CC2CCCCC2)c2ccccc12)NCCC1CCNCC1 [Compound 117, 3-(1-(cyclohexylmethyl)-1H-indol-3-yl)-N-(2-(piperidin-4-yl)ethyl)propanamide hydrochloride salt] | 166 µM | 256 µg/mL | 256 µg/mL
13 | Cc1cccc(C(CC(=O)NCCC2CCNCC2)c2cn(Cc3ccccc3)c3ncccc23)c1.Cl (stereo not drawn) [Compound 39, 3-(1-benzyl-1H-pyrrolo[2,3-b]pyridin-3-yl)-N-(2-(piperidin-4-yl)ethyl)-3-(m-tolyl)propanamide hydrochloride salt] | 959 µM | > 512 µg/mL | 265 µg/mL
14 | NC1CCC(NCCCc2cn(CC3CCCCC3)c3ccc(-c4cccc(OC(F)(F)F)c4)cc23)CC1 [Compound 242, (1S,4S)-N1-(3-(1-(cyclohexylmethyl)-5-(3-(trifluoromethoxy)phenyl)-1H-indol-3-yl)propyl)cyclohexane-1,4-diamine hydrochloride salt] | 6.6 µM | 5 µg/mL | 2 µg/mL
15 | COc1ccccc1-c1ccc2c(c1)c(CCC(=O)N[C@H]1CC[C@H](N)CC1)cn2CC1CCCCC1.Cl [Compound 230, N-((1R,4R)-4-aminocyclohexyl)-3-(1-(cyclohexylmethyl)-5-(2-methoxyphenyl)-1H-indol-3-yl)propanamide hydrochloride salt] | 11 µM | 67 µg/mL | 8 µg/mL
16 | NC1CCC(NC(=O)CC(c2cnc3ccccc3c2)c2cn(CC3CCCCC3)c3ccccc23)CC1 [Compound 142, N-((1S,4S)-4-aminocyclohexyl)-3-(1-(cyclohexylmethyl)-1H-indol-3-yl)-3-(quinolin-3-yl)propanamide hydrochloride salt] | 44 µM | 32 µg/mL | 8 µg/mL
17 | Cc1cccc(C(CC(=O)NCC2CCNCC2)c2cn(Cc3ccccc3)c3ncccc23)c1.Cl (stereo not drawn) [Compound 69, 3-(1-benzyl-1H-pyrrolo[2,3-b]pyridin-3-yl)-N-(piperidin-4-ylmethyl)-3-(m-tolyl)propanamide hydrochloride salt] | 825 µM | > 512 µg/mL | > 512 µg/mL
18 | Cc1cccc(-c2ccc3c(c2)c(CC(=O)N[C@H]2CC[C@H](N)CC2)cn3CC2CCCCC2)c1.Cl [Compound 209, N-((1R,4R)-4-aminocyclohexyl)-2-(1-(cyclohexylmethyl)-5-(m-tolyl)-1H-indol-3-yl)acetamide hydrochloride salt] | 5.4 µM | 63 µg/mL | 4 µg/mL

Other lines, results leading:

Row | IC50 [1] | MIC [2] | MIC [3] | Structure (SMILES)
19 | 6.8 µM | 32 µg/mL | 4 µg/mL | Cc1cccc(C(CC(=O)N[C@H]2CC[C@H](N)CC2)c2cn(CC3CCCC3)c3ccccc23)c1.Cl (stereo partly drawn) [Compound 111, N-((1R,4R)-4-aminocyclohexyl)-3-(1-(cyclopentylmethyl)-1H-indol-3-yl)-3-(m-tolyl)propanamide hydrochloride salt]
20 | 168 µM | > 512 µg/mL | 19 µg/mL | Cc1cccc(C(CC(=O)NCC2CNCCO2)c2cn(CC3CCCCC3)c3ccc(Br)cc23)c1.Cl (stereo not drawn) [Compound 281, 3-(5-bromo-1-(cyclohexylmethyl)-1H-indol-3-yl)-N-(morpholin-2-ylmethyl)-3-(m-tolyl)propanamide hydrochloride salt]
21 | 5.6 µM | 64 µg/mL | 4 µg/mL | Cc1cccc(C(CC(=O)NCCC2CCNCC2)c2cn(CCC3CCCCC3)c3ccccc23)c1.Cl (stereo not drawn) [Compound 110, 3-(1-(2-cyclohexylethyl)-1H-indol-3-yl)-N-(2-(piperidin-4-yl)ethyl)-3-(m-tolyl)propanamide hydrochloride salt]
22 | 41 µM | > 512 µg/mL | 64 µg/mL | Cc1cccc(C(CC(=O)N[C@H]2CC[C@H](N)CC2)c2cn(CC3CCCCC3)c3ccc(-c4ccccc4)cc23)c1.Cl (stereo partly drawn) [Compound 153, N-((1R,4R)-4-aminocyclohexyl)-3-(1-(cyclohexylmethyl)-5-phenyl-1H-indol-3-yl)-3-(m-tolyl)propanamide hydrochloride salt]
23 | 12 µM | 63 µg/mL | 8 µg/mL | Cc1cccc(C(CC(=O)N2CCC(N)CC2)c2cn(CC3CCCCC3)c3ccccc23)c1.Cl (stereo not drawn) [Compound 179, 1-(4-aminopiperidin-1-yl)-3-(1-(cyclohexylmethyl)-1H-indol-3-yl)-3-(m-tolyl)propan-1-one hydrochloride salt]
24 | 7 µM | 275 µg/mL | 9 µg/mL | Cc1cccc(C(CC(=O)NC[C@H]2CC[C@H](CN)CC2)c2cn(CC3CCCCC3)c3ccccc23)c1.Cl (stereo partly drawn) [Compound 166, N-(((1S,4S)-4-(aminomethyl)cyclohexyl)methyl)-3-(1-(cyclohexylmethyl)-1H-indol-3-yl)-3-(m-tolyl)propanamide hydrochloride salt]
25 | 74 µM | 147 µg/mL | 37 µg/mL | Cc1cccc(C(CC(=O)NC2CCNCC2)c2cn(CC3CCOCC3)c3ccc(Br)cc23)c1.Cl (stereo not drawn) [Compound 285, 3-(5-bromo-1-((tetrahydro-2H-pyran-4-yl)methyl)-1H-indol-3-yl)-N-(piperidin-4-yl)-3-(m-tolyl) propanamide hydrochloride salt]
26 | 45 µM | > 512 µg/mL | 8 µg/mL | Cc1cccc(C(CCN[C@H]2CC[C@H](O)CC2)c2cn(CC3CCCCC3)c3ccccc23)c1.Cl (stereo partly drawn) [Compound 218, (1R,4R)-4-((3-(1-(cyclohexylmethyl)-1H-indol-3-yl)-3-(m-tolyl)propyl)amino) cyclohexan-1-ol hydrochloride salt]
27 | 16 µM | > 512 µg/mL | 16 µg/mL | Cc1cccc(C(CC(=O)N[C@H]2CCCC[C@@H]2N)c2cn(CC3CCCCC3)c3ccccc23)c1.Cl (stereo partly drawn) [Compound 189, N-((1S,2S)-2-aminocyclohexyl)-3-(1-(cyclohexylmethyl)-1H-indol-3-yl)-3-(m-tolyl)propanamide hydrochloride salt]
